Assay results reported in patent US8895599B2, “Lipoprotein lipase-activating compositions comprising benzene derivates” (Otsuka Pharmaceutical Factory, Inc., priority 2008, dated 2014).

Columns and labels:
[1] = Anti-obesity test using Zucker fatty rats; assay type: in vivo; conditions: 100 mg/kg oral, once a day over 4 weeks, relative to control group
Text: Anti-Obesity Test Using Zucker Fatty Rats
Zucker fatty rats are obese rats discovered by Zucker et al., in 1961 as mutants among 13 M rats, which are a hybrid between 13C and M rats. These rats (fa/fa) start to appear distinctly obese from normal broods around the age of 3 weeks. As they age, the weight difference between the fatty rats and normal rats increases. Zucker fatty rats are currently kept by a variety of organizations as simple obesity models, and are readily obtainable.
This test was performed using this rat model to evaluate the anti-obesity action of the compounds of the invention. The preparation method of test samples and the test procedures are described below:
The test samples were prepared in the same manner as in Test Example 2.
Zucker fatty rats and lean rats (both from Charles River Japan) were purchased at the age of 5 weeks. They were divided into groups (10 rats per group) according to body weight when they reached 6 weeks old. After acclimatization, the administration of test samples was initiated when the rats reached 8 weeks old. Test samples were orally administered using an oral gavage so that the compounds of the invention contained in the test samples were given in an amount of 100 mg/kg body weight (test sample dosage: 5 ml/kg body weight). The test samples were administered once a day over 4 weeks at a specific time of day.
As a control, a group of rats were administered with the same amount of 5% aqueous gum arabic solution (5 ml/kg body weight) instead of the test samples.
The rats of all groups were weighed on the last day of administration. The average body weight of the rats of each test group was compared with the average body weight (standard weight) of the rats of the control group to obtain the weight variations (differences). The weight differences were expressed as percentages in relation to the standard weight. The values thus calculated are referred to as “weight change %”. When a weight difference is negative relative to the standard weight, weight change % is shown with “−” (minus).
During the test period, the rats of the respective groups had free access to rat feed (“CRF-1”, manufactured by Oriental Yeast, Co., Ltd.) and water (tap water).

[2] = Therapeutical effect on olive oil-induced triglyceride hyperlipidemia models; assay type: in vivo; conditions: once a day for one week, SD rats, 2 h after olive oil
Method: Test of Therapeutical Effect on Olive Oil-Induced Triglyceride Hyperlipidemia Models
To conduct this test, 6-week-old SD rats (purchased from Charles River Japan) were used.
According to the body weight of the test rats when they were 5 weeks old, the test rats were divided into test groups and a control group with 6 rats per group.
A predetermined amount of each compound prepared in the Examples was measured and placed in an agate mortar. While 5% aqueous gum arabic solution was gradually introduced to the mortar, the compound was uniformly ground and suspended. Test samples were prepared by further adding 5% aqueous gum arabic solution gradually. Subsequently, these test samples were subjected to ultrasonic washing for 10 minutes to homogenize. Test samples were prepared as and when necessary.
The rats of the test groups were orally administered with the compounds of the invention such that rats received the compounds in an amount of 10, 30, or 100 mg/kg. The compounds of the invention were formulated as 5% gum arabic suspensions as described above.
The rats of the control group were orally administered with 5% aqueous gum arabic solution (not containing the compounds of the invention) in an amount of 5 ml/kg body weight. Administration was conducted once a day continuously for one week at a specific time of day after the rats reached 6 weeks of age. This test was performed under non-fasting conditions (rats had free access to feed and water), and the rats were fasted after the final administration of the compounds or 5% aqueous gum arabic solution.
Two hours after the final administration, olive oil was orally administered to the rats from both groups in an amount of 3 ml/kg body weight.
Two hours after the olive oil administration, blood was collected from the abdominal aorta of the rats of the respective groups using a heparinized syringe. The plasma was centrifugally separated from the blood at a temperature of 4° C., and the triglyceride level of the plasma was measured. A Hitachi 7170 automatic analyzer was used as the measuring instrument. Using the values measured from the test groups and control group, the decrease (%) in plasma triglyceride level was calculated according to the following equation: Decrease (%) in plasma triglyceride concentration=(1−E/C)×100 wherein E represents the average plasma triglyceride level in each test group; and C represents the average plasma triglyceride level in the control group.

[3] = Anti-obesity test using AKR mice (high-fat feed); assay type: in vivo; conditions: 1 mg per gram of feed in high-fat feed, 7 weeks, AKR/J mice, relative to high-fat feed control group
Text: Anti-Obesity Test Using AKR Mice
Furthermore, this test enables the evaluation of therapeutic effects on diabetes. That is, it is reported that insulinemia can be observed in AKR/J mice when they are fed with a high-fat diet (see Am. J. Physiol. 266 (5 Pt 2), May 1994: R1423-8). It is thus known that insulinemia is strongly associated with diabetes (see, for example, J. Cardiovasc. Nurs. 16 (2), January 2002: 17-23). Therefore, this test can verify the therapeutic effects of the compounds of the present invention, used as test compounds, on diabetes.
For rat feed, powdered CRF-1 (Charles River Formula 1, manufactured by Oriental Yeast, Co., Ltd.) was used as normal feed. As high-fat feed, that prepared by blending CRF-1 with 18% safflower oil (Oriental Yeast, Co., Ltd.) was used.
Test substances were blended with the high-fat feed in an amount of 1 mg per gram of CRF-1.
AKR/J mice (from CLEA Japan, Inc.) were purchased at the age of 4 weeks. They were roughly divided into 2 groups according to body weight when the mice reached 5 weeks old. During this period, all mice were given the normal feed.
Subsequently, the mice of one group (8 mice) continued to be fed with the normal feed (normal feed group). The mice of the other group (8×(the number of the test substances+1) mice) were given the high-fat feed (high-fat feed group).
The body weight of the mice of each group was measured daily. […] These mice were further reared for 7 weeks (“test substances+high-fat feed groups”; n=8 per type of test substance). Specifically, the administration of the test substances was continued for 7 weeks. A group of mice to which high-fat feed containing no test substance was continued to be given was used as a control (high-fat feed control group; n=8).
Four hours after the feeding on the last day of the 7-week test (the last day of the test), the body weight of the mice of the “test substances+high fat feed groups” was measured. Blood was collected from the abdominal aorta of the mice using a heparinized syringe, and the leptin and insulin levels in the plasma were measured using an Elisa kit (produced by Morinaga). The mice of the other groups (normal feed group and high-fat feed control group) were reared till the last day of the test as above, and 4 hours after the last feeding on the last day of the test the measurements were performed according to the same procedures.
The average values of the test results (body weight, leptin level, and insulin level) of the test substances+high-fat feed groups to which the compounds prepared in Examples (Examples 10 and 58) were used as test substances (hereinbelow referred to as the “Example Compound 10-mixed high-fat feed group” and “Example Compound 58-mixed high-fat feed group”) were compared with the respective average values (standard values) of the results obtained from the mice of the high-fat control group to obtain the variations (differences). The differences were expressed as percentages in relation to the standard values. The values thus calculated were referred to as “weight change (%)”, “leptin level change (%)”, and “insulin level change (%)”. In the table below, the symbols “−” (minus) indicate that the differences are negative relative to the standard values.

melting point: 141 to 143 °C
SMILES: COc1cc(-c2cn3ccccc3n2)ccc1OCc1ccc(Cl)cc1 [Example 10]
Weight Change (%) [1]: −15%
Decrease in plasma triglyceride level (%) ([2]; 10 mg/kg oral): 48%
Decrease in plasma triglyceride level (%) ([2]; 30 mg/kg oral): 67%
Decrease in plasma triglyceride level (%) ([2]; 100 mg/kg oral): 74%
Weight Change (%) [3]: −15%
Insulin level change (%) ([3]; plasma): −54%
Leptin level change (%) ([3]; plasma): −68%
